{
  "source": "patent US5972961A",
  "about": "“4-aryl-3-aminoquinoline-2-one derivatives as potassium channel modulators” (Bristol-Myers Squibb Company, priority 1998, dated 1999)",
  "data": [
    {"system": "cloned mammalian (mSlo or hSlo) BK channels", "assay": "BK-mediated outward current in Xenopus oocytes, two-electrode voltage clamp", "assay_type": "cell-based", "details": "at 20 μM; expressed as percent increase over BK current in controls; IBTX-sensitive current; at least 5 oocytes", "experimental": "The ability of compounds described in the present invention to open BK channels and increase whole-cell outward (K^+) BK-mediated currents was assessed under voltage-clamp conditions by determining their ability to increase cloned mammalian (mSlo or hSlo) BK-mediated outward current heterologously expressed in Xenopus oocytes [Butler, A., et al., Science, 261: 221-224 (1993); and Dworetzky, S. I., et al., Mol. Brain Res., 27: 189-193 (1994)]. The two BK constructs employed represent nearly structurally identical homologous proteins, and have proven to be pharmacologically identical in our tests. To isolate BK current from native (background, non-BK) current, the specific and potent BK channel-blocking toxin iberiotoxin (IBTX) [Galvez, A., et al., J. Biol. Chem., 265: 11083-11090 (1990)] was employed at a supramaximal concentration (50 nM). The relative contribution of BK channels current to total outward current was determined by subtraction of the current remaining in the presence of IBTX (non-BK current) from the current profiles obtained in all other experimental conditions (control, drug, and wash). […] All compounds were tested in at least 5 oocytes and are reported at the single concentration of 20 μM; the effect of the selected compounds of Formula I on BK current was expressed as the percent of control IBTX-sensitive current and is listed in Table I. Recordings were accomplished using standard two-electrode voltage clamp techniques [Stuhmer, W., et al., Methods in Enzymology, Vol. 207: 319-339 (1992)]; voltage-clamp protocols consisted of 500-750 ms duration step depolarizations from a holding potential of -60 mV to +140 mV in 20 mV steps. The experimental media (modified Barth's solution) consisted of (in mM): NaCl (88), NaHCO3 (2.4), KCl (1.0), HEPES (10), MgSO4 (0.82), Ca(NO3)2 (0.33), CaCl2 (0.41); pH 7.5.", "values": [
      {"smiles": "Nc1c(-c2cc(Cl)ccc2O)c2cc(C(F)(F)F)ccc2[nH]c1=O", "note": "[Example 2, 3-Amino-4-(5-chloro-2-hydroxyphenyl)-6-(trifluoromethyl)quinolin-2(1H)-one]", "BK Current": "++ (++ = > 150%)"},
      {"smiles": "O=c1[nH]c2ccc(C(F)(F)F)cc2c(-c2cc(Cl)ccc2O)c1NS(=O)(=O)C(F)(F)F", "note": "[Example 5, N-[4-(5-Chloro-2-hydroxyphenyl)-2-oxo-6-(trifluoromethyl)-1H-quinolin-3-yl]trifluoromethanesulfonamide]", "BK Current": "++ (++ = > 150%)"},
      {"smiles": "O=C(Nc1c(-c2cc(Cl)ccc2O)c2cc(C(F)(F)F)ccc2[nH]c1=O)c1ccccc1", "note": "[Example 10, N-[4-(5-Chloro-2-hydroxyphenyl)-2-oxo-6-(trifluoromethyl)-1H-quinolin-3-yl]benzamide]", "BK Current": "+ (+ = 100-150%)"},
      {"smiles": "Nc1c(-c2cc(Cl)ccc2O)c2ccccc2[nH]c1=O", "note": "[Example 14, 3-Amino-4-(5-chloro-2-hydroxyphenyl)quinolin-2(1H)-one]", "BK Current": "+ (+ = 100-150%)"},
      {"smiles": "O=C(Nc1c(-c2cc(Cl)ccc2O)c2cc(C(F)(F)F)ccc2[nH]c1=O)OCc1ccccc1", "note": "[Example 17, N-[4-(5-Chloro-2-hydroxyphenyl)-2-oxo-6-(trifluoromethyl)-1H-quinolin-3-yl]aminocarboxylic acid, phenylmethyl ester]", "BK Current": "++ (++ = > 150%)"},
      {"smiles": "Nc1c(-c2cc(Cl)ccc2O)c2cc([N+](=O)[O-])ccc2[nH]c1=O", "note": "[Example 19, 3-Amino-4-(5-chloro-2-hydroxyphenyl)-6-nitroquinolin-2(1H)-one]", "BK Current": "++ (++ = > 150%)"},
      {"smiles": "O=C(Nc1c(-c2cc(Cl)ccc2O)c2cc(C(F)(F)F)ccc2[nH]c1=O)c1ccc(O)cc1", "note": "[Example 29, N-[4-(5-Chloro-2-hydroxyphenyl)-2-oxo-6-(trifluoromethyl)-1H-quinolin-3-yl]-4-hydroxybenzamide]", "BK Current": "+ (+ = 100-150%)"},
      {"smiles": "COc1ccc(CC(=O)Nc2c(-c3cc(Cl)ccc3O)c3cc(C(F)(F)F)ccc3[nH]c2=O)cc1", "note": "[Example 32, N-[4-(5-Chloro-2-hydroxyphenyl)-2-oxo-6-(trifluoromethyl)-1H-quinolin-3-yl]-(4-methoxyphenyl)acetamide]", "BK Current": "+ (+ = 100-150%)"},
      {"smiles": "Nc1c(-c2cc(Cl)ccc2O)c2cc(Cl)c(C(F)(F)F)cc2[nH]c1=O", "note": "[Example 43, 3-Amino-4-(5-chloro-2-hydroxyphenyl)-6-chloro-7-(trifluoromethyl)quinolin-2(1H)-one]", "BK Current": "+ (+ = 100-150%)"},
      {"smiles": "Nc1c(-c2cc(Cl)ccc2O)c2c(C(F)(F)F)c(Cl)ccc2[nH]c1=O", "note": "[Example 44, 3-Amino-4-(5-chloro-2-hydroxyphenyl)-6-chloro-5-(trifluoromethyl)quinolin-2(1H)-one]", "BK Current": "+ (+ = 100-150%)"},
      {"smiles": "O=c1[nH]c2ccc(C(F)(F)F)cc2c(-c2cc(Cl)ccc2O)c1NS(=O)(=O)c1ccc([N+](=O)[O-])cc1", "note": "[Example 64, N-[4-(5-Chloro-2-hydroxyphenyl)-2-oxo-6-(trifluoromethyl)-1H-quinolin-3-yl]-4-nitrobenzene-sulfonamide]", "BK Current": "++ (++ = > 150%)"},
      {"smiles": "O=c1[nH]c2ccc(C(F)(F)F)cc2c(-c2cc(Cl)ccc2O)c1NS(=O)(=O)c1ccc(F)cc1", "note": "[Example 66, N-[4-(5-Chloro-2-hydroxyphenyl)-2-oxo-6-(trifluoromethyl)-1 H-quinolin-3-yl]-(4-fluorobenzene)sulfonamide]", "BK Current": "++ (++ = > 150%)"},
      {"smiles": "Cn1c(=O)c(N)c(-c2cc(Cl)ccc2O)c2cc(C(F)(F)F)ccc21", "note": "[Example 68, 3-Amino-4-(5-chloro-2-hydroxy-phenyl)-1-methyl-6-(trifluoro-methyl)quinolin-2(1H)-one]", "BK Current": "+ (+ = 100-150%)"},
      {"smiles": "Nc1c(-c2ccc(O)c(Cl)c2)c2cc(C(F)(F)F)ccc2[nH]c1=O", "note": "[Example 71, 3-Amino-4-(3-chloro-4-hydroxy-phenyl)-6-(trifluoromethyl)quinolin-2(1H)-one]", "BK Current": "+ (+ = 100-150%)"}
    ]},
    {"system": "cortical infarct volume after middle cerebral artery occlusion", "assay": "Permanent focal ischemia, middle cerebral artery occlusion (MCAO model)", "assay_type": "in vivo, spontaneously hypertensive rat", "details": "0.001 mg/kg intravenous single bolus 30 minutes after MCAO; vs vehicle-treated control; infarct measured 24 hours after MCAO", "source_text": "To determine the ability of these compounds to reduce cell loss resulting from neuronal ischemia, a standard rodent model of permanent focal ischemia, involving occlusion of the middle cerebral artery in the spontaneously hypertensive rat (MCAO model) was employed [Tamura, A., et al., Journal of Cerebral Blood Flow and Metabolism, Volume 1, 53-60, (1981)].\nSelected compounds have been evaluated in the focal stroke model involving permanent middle cerebral artery occlusion (MCAO) in the spontaneously hypertensive rat. This procedure results in a reliably large neocortical infarct volume that is measured by means of vital dye exclusion in serial slices through the brain 24 hours after MCAO. In the present test, compounds were administered using an intravenous route of administration at 30 minutes after occlusion.", "values": [
      {"smiles": "Nc1c(-c2cc(Cl)ccc2O)c2cc(C(F)(F)F)ccc2[nH]c1=O", "note": "[Example 2, 3-Amino-4-(5-chloro-2-hydroxyphenyl)-6-(trifluoromethyl)quinolin-2(1H)-one]", "reduction of cortical infarct volume": "about 14%"}
    ]}
  ]
}
